From patent publication US20030186890A1, “Amphipathic linear peptides and formulations containing said peptides” (SYNT:EM S.A., priority 2000, published 2003)
“And” between values parts separate entries of the source, which are not always exact repeats. Equal values may be shown once.

What was measured:
[1] = mouse, in vivo
Description: This is a rapid and sensitive method to evaluate the penetration of various compounds in the central nervous system. Young mice (25-30 g, Iffa-Credo; l'Arbresle, France) were anaesthetised. After exposure of the common carotid, the right external carotid artery was tied at the bifurcation with the internal carotid and the common carotid was tied between the heart and the catheter implantation site (polyethylene catheter, ID: 0.76). The catheter previously filled with a heparin solution (100 units/ml) was inserted into the common carotid. The mice were infused with the infusion buffer (128 mM NaCl, 24 mM NaHCO3, 4.2 mM KCl, 2.4 mM NaH2PO4, 1.5 mM CaCl2, 0.9 mM MgSO4 and 9 mM D-glucose). The buffer was filtered and then bubbled with a mixture containing 95% O2/5% CO2 to maintain the pH close to 7.4 and supply the brain with oxygen during the infusion.
In each product, the doxorubicin was radiolabelled with carbon 14 (specific activity: 9.4 μCi/mg, Amersham, France) . The products were infused at a concentration of 0.33 μCi/ml or 0.035 mg/mouse.
Just before the start of infusion, the heart was stopped by ventricular section to prevent infusate reflux during infusion. The right hemisphere was then infused at a rate of 10 ml/min for 60 seconds, after which the mouse was decapitated. […]

K562 cells = experiment: Cell penetration of NBD-labelled peptides by flow cytometry (FACS); format: cell-based; details: for penetration (mean fluorescent intensity): NBD-labelled peptide 1 μM, 37° C.; for penetration relative to that of SynB1: at 60 min; for penetration compared with the reference peptide (in words): irrespective of the time interval
Description: Cell penetration of the peptides was studied by flow cytometry. The K562 cells were cultured in RPMI medium with 10% foetal calf serum. The cells were diluted to 0.3×10^6 cells per ml 24 hours before the experiment. The cell penetration was measured by flow cytometry using a FACScan (Becton Dickinson, USA). The peptides labelled with NBD (final concentration 1 μM) were incubated with the K562 cells (5×10^5 cells per ml) in Optimem medium at 37° C. for variable periods (the final volume was 0.5 ml). After incubation, the cells were washed twice and then resuspended in 0.5 ml of cold PBS. The penetration was then analysed by FACS. The fluorophors were excited at 488 nm and the fluorescence measured at 525 nm. A histogram of the fluorescent intensity (for 1×10^4 cells) was obtained and the mean distribution considered to be representative of the quantity of peptide associated with the cells.

Substance	increase of passage into the brain (influx constant Kin) versus doxorubicin alone [1]	penetration (mean fluorescent intensity) (K562 cells; Time 0 min)	penetration (mean fluorescent intensity) (K562 cells; Time 5 min)	penetration (mean fluorescent intensity) (K562 cells; Time 10 min)	penetration (mean fluorescent intensity) (K562 cells; Time 30 min)	penetration (mean fluorescent intensity) (K562 cells; Time 60 min)	penetration relative to that of SynB1 (K562 cells)	penetration compared with the reference peptide (in words) (K562 cells)
Doxo-(RGGRLSYSCitCitCitFSTSTGR) [Doxo-SynB1/3Cit]	20 times							
R G G R L A Y L R R R W A V L V G R (RGGRLAYLRRRWAVLVGR) [SM3979]		4	75	95	100	114	9 times	penetrate much more effectively
R G G R L S Y S R R R F S T S T G R (RGGRLSYSRRRFSTSTGR) [SynB1, reference compound]		4	7	7	8	12		
R G G R L V Y V R R R W V V V V G R (RGGRLVYVRRRWVVVVGR) [SM3980]		4	34	42	54	62	5 times	penetrate much more effectively
R L R W R L R L R F (RLRWRLRLRF) [SM4292]		4.5	140	140	141	146		
R L R W R L R Y R F (RLRWRLRYRF) [SM4291]		4.5	91	99	107	118		
R R L S Y S R R R F (RRLSYSRRRF) [SynB3, reference compound]		4 and 4.5	9.5 and 12	10 and 13	12 and 15	16 and 23		
R R L W L L R R R F (RRLWLLRRRF) [SM4288]		4	33	38	53	61		
R R L W R L L R R F (RRLWRLLRRF) [SM4290]		4	147	168	366	371		
R R L W R L Y R R F (RRLWRLYRRF) [SM4289]		4	63	80	107	135		
R R L W Y L R R R F (RRLWYLRRRF) [SM4287]		4	29	34	50	60		
RKLWYLRKRF [SM4293]		4.5	20	23	29	31		
